Experimental data from ChEMBL document CHEMBL5674860, “Optimized Dual-Glo Assay to identify co-culture-induced drug vulnerabilities in 3D CRC models” (2024).

How the values were obtained:
Type in all cases: functional, Homo sapiens
Parameters in all cases: dose or concentration left out as unconfirmed
[1] = system: Colon cancer organoid; experiment: Optimized Dual-Glo assay to identify co-culture induced drug vulnerabilities using donated chemical probes and chemogenomics kinase set in O14 CRC organoid and F14 CAF mono and co-culture. […] Cell viability is reported both mono and co-culture models.
[2] = system: Colon cancer organoid; experiment: Optimized Dual-Glo assay to identify co-culture induced drug vulnerabilities using donated chemical probes and chemogenomics kinase set in O06 CRC organoid and F06 CAF mono and co-culture. […] Cell viability is reported both mono and co-culture models.
[3] = system: Colon cancer organoid; experiment: Optimized Dual-Glo assay to identify co-culture induced drug vulnerabilities using donated chemical probes and chemogenomics kinase set in O20 CRC organoid and F20 CAF mono and co-culture. […] Cell viability is reported both mono and co-culture models.
[4] = Culture type Co-Culture, Transduced with Lucferase2-P2A-EGFP lentivirus
[5] = Culture type Co-Culture, Transduced with Renilla-dsRed lentivirus
[6] = Culture type Mono-Culture, Transduced with Lucferase2-P2A-EGFP lentivirus
[7] = Culture type Mono-Culture, Transduced with Renilla-dsRed lentivirus

Row | SMILES | Cell Viability [1, 4] [%] | Cell Viability [1, 5] [%] | Cell Viability [1, 6] [%] | Cell Viability [1, 7] [%] | Cell Viability [2, 4] [%] | Cell Viability [2, 5] [%] | Cell Viability [2, 6] [%] | Cell Viability [2, 7] [%] | Cell Viability [3, 4] [%] | Cell Viability [3, 5] [%] | Cell Viability [3, 6] [%] | Cell Viability [3, 7] [%]
1 | CC(C)Oc1ccc(-c2c[nH]cc2CN(C)CCO)cc1 | 119.367 | 107.888 | 90.5544 | 99.1586 | 112.392 | 114.959 | 84.6605 | 116.102 | 114.035 | 121.653 | 114.538 | 100.305
2 | O=C(Nc1nc2cccc(-c3ccc(CN4CCS(=O)(=O)CC4)cc3)n2n1)C1CC1 [FILGOTINIB] | 124.013 | 111.823 | 119.446 | 102.655 | 100.525 | 92.8016 | 121.161 | 92.1067 | 112.545 | 86.0918 | 106.088 | 87.0807
3 | Cc1cc(CN)cc(C)c1-c1ncn(C)c1-c1cncn1C | 82.5441 | 115.965 | 119.104 | 86.3829 | 121.461 | 141.638 | 159.088 | 144.43 | 127.582 | 117.48 | 113.288 | 98.6435
4 | O=C(N[C@H]1CCCCC/C=C\C2C[C@@]2(C(=O)O)NC(=O)[C@@H]2C[C@@H](Oc3ccncc3)CN2C1=O)OC1CCCC1 (stereo partly drawn) [BI 1675] | 104.235 | 108.175 | 94.4705 | 89.8487 | 118.509 | 153.84 | 83.7502 | 91.3607 | 103.036 | 110.731 | 113.647 | 94.6025
5 | CCNC(=O)c1cc2c(-c3cc(C(C)(C)O)ccc3Oc3c(C)cc(F)cc3C)cn(C)c(=O)c2[nH]1 [ABBV-744] | 55.2801 | 319.971 | 42.072 | 212.265 | 91.6049 | 287.135 | 45.0108 | 272.327 | 58.1744 | 215.224 | 60.9117 | 122.12
6 | C[C@H](c1ccnc(Nc2nc3ccc(-c4cc(N(C)C)ncn4)cc3[nH]2)c1)N1CCN(C(=O)CC(F)(F)F)CC1 [BAY-985] | 122.433 | 113.895 | 111.789 | 77.4572 | 134.436 | 180.071 | 90.5996 | 96.3949 | 129.711 | 125.86 | 106.931 | 106.043
7 | COc1cccc2c1c(O)c(C(=O)N(C)c1ccc(C(F)(F)F)cc1)c(=O)n2C [TASQUINIMOD] | 94.583 | 144.919 | 82.4794 | 97.8059 | 78.5663 | 130.265 | 63.1287 | 110.699 | 63.9822 | 99.9703 | 87.5673 | 108.719
8 | Cc1sc2c(c1C)C(c1ccc(Cl)cc1)=N[C@H](CC(=O)OC(C)(C)C)c1nnc(C)n1-2 | 111.301 | 136.501 | 108.464 | 107.072 | 107.283 | 109.974 | 69.4816 | 97.8447 | 98.7176 | 113.657 | 118.396 | 90.6965
9 | O=C(CNCc1cc2ccccc2[nH]1)N[C@H]1CC[C@@H](c2nc3ccccc3[nH]2)CC1 | 97.4401 | 97.7804 | 95.7204 | 104.778 | 85.8975 | 91.436 | 103.293 | 98.1178 | 100.625 | 124.153 | 84.865 | 96.1375
10 | C=CC(=O)Nc1ccc2[nH]c(=O)n(C3CCN(Cc4ccc(-c5ccc6c(c5)NC(=O)CO6)cc4)CC3)c2c1 [RL2578] | 109.086 | 76.9187 | 101.444 | 81.1144 | 88.4189 | 104.707 | 87.6184 | 83.8435 | 101.172 | 98.7435 | 76.3776 | 83.481
11 | COc1cc(C)c(Sc2cnc(NC(=O)c3ccc(CNC(C)C(C)(C)C)cc3)s2)cc1C(=O)N1CCN(C(C)=O)CC1 (stereo not drawn) | 66.3781 | 81.9892 | 56.9877 | 80.9779 | 97.8632 | 73.4932 | 75.5351 | 54.8582 | 92.0383 | 97.5626 | 38.3034 | 78.8109
12 | CC(C)(O)c1cncc(-c2nc3ccc(F)cc3n2C2CC2)c1 [MSD-CYP11B2] | 60.604 | 97.9336 | 96.2618 | 98.7246 | 83.611 | 134.058 | 92.3684 | 91.4752 | 80.0796 | 128.543 | 82.8695 | 83.5223
13 | CCCCNc1ncc(-c2ccc(CN3CCOCC3)cn2)c(N[C@H]2CC[C@H](O)CC2)n1 | 23.305 | 148.151 | 59.2421 | 71.142 | 22.8495 | 123.664 | 12.6023 | 77.4775 | 8.774 | 223.767 | 10.8517 | 82.0591
14 | O=C(Nc1ccc(-c2ccnc(Nc3ccc(N4CCOCC4)cc3)n2)cc1)[C@@H]1CCCN1 | 127.595 | 79.807 | 135.011 | 98.0054 | 100.254 | 96.014 | 101.806 | 108.082 | 138.223 | 76.0213 | 82.2702 | 101.459
